Measured values published in publication PMC10089224, “A macrocyclic peptide inhibitor traps MRP1 in a catalytically incompetent conformation” (Proceedings of the National Academy of Sciences of the …, 2023).
Entries after “also recorded” stand apart in the source; their conditions may differ. Where a SMILES comes first, the peptide text is derived from it. Bridges are numbered along the chain shown (N, C = ends). [ ]: non-standard residue; d: D form.

Assays:
bMRP1 = target: T1, bMRP1 (Bos taurus, UniProt Q8HXQ5); experiment: ATPase activity of detergent-solubilized bMRP1, inhibition by CPI1 (basal and LTC4-stimulated); format: biochemical, bovine
T1 construct: eGFP (C, cleaved yes); PreScission protease site (remnant after cleavage) (C); made in house; host or cells: HEK293S GnTI- cells infected with baculovirus (BacMam) made in Sf9 cells
T1 sequence (Q8HXQ5 whole entry): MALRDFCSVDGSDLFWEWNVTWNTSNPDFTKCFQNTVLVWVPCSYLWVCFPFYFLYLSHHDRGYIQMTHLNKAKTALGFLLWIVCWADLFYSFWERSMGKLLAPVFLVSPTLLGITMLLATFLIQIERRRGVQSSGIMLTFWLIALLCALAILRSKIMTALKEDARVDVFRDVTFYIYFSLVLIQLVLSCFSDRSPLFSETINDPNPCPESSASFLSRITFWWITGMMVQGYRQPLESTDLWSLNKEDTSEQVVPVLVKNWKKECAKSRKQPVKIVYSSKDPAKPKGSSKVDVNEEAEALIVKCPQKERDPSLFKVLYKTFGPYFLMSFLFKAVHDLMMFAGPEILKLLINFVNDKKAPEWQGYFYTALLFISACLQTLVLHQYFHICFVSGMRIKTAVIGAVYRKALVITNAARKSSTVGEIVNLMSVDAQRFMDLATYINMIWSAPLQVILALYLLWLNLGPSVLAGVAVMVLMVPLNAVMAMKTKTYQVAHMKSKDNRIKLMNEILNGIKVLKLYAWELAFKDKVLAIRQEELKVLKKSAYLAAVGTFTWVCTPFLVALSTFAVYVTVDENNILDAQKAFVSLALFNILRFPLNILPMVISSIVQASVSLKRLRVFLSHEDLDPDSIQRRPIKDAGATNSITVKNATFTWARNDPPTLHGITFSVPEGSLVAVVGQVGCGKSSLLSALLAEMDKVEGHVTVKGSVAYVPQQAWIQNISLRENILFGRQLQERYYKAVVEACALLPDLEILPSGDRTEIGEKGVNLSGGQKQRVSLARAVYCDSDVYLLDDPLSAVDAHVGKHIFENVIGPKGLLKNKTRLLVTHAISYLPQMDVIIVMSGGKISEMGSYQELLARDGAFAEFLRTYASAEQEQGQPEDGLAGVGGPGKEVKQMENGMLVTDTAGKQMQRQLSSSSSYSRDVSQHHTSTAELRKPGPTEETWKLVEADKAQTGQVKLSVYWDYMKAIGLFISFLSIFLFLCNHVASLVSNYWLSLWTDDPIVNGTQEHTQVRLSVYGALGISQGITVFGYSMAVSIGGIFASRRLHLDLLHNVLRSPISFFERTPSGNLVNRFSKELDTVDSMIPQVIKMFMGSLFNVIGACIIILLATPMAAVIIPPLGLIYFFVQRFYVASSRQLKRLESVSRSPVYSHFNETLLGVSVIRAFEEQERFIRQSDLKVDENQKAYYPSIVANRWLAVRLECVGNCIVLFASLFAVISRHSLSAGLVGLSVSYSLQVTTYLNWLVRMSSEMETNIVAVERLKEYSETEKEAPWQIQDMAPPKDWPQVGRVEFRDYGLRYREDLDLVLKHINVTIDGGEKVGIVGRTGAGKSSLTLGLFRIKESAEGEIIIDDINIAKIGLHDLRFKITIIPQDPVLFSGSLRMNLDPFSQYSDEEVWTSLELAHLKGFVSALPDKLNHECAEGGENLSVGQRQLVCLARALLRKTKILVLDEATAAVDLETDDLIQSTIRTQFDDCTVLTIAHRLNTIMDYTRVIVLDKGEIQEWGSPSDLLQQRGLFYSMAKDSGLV
Method: All values reported as the mean ± standard error (SE) of three separate measurements. The statistical significance was calculated using unpaired, parametric, two-sided t tests. Labels: not significant (n.s.), P < 0.05 (*), P < 0.01 (**), P < 0.001 (***) P < 0.0001 (****). […] Rates of ATP hydrolysis were normalized to maximal activity. Data were fit to a modified version of the quadratic binding equation to account for free ligand depletion (Materials and Methods).
All protein purification steps were performed on ice or at 4 °C. Thawed cell pellets were resuspended with a handheld homogenizer (Polytron PT1200E) in a solution of 300 mM NaCl, 50 mM HEPES pH 8.0, 2 mM MgCl2, 2 mM dithiothreitol (DTT), and 20% glycerol with DNase I and protease inhibitors (1 µg/mL aprotinin, 0.6 mM benzamidine, 1 µg/mL leupeptin, 1 µg/mL pepstatin A, 1 mM phenylmethylsulfonyl fluoride, and 100 µg/mL soy trypsin inhibitor). Membranes were solubilized for 1.5 h by addition of 2% lauryl maltose neopentyl glycol and 0.2% cholesteryl hemisuccinate, after which insoluble material was removed by centrifugation for 40 min at 75,000 × g. Supernatant was mixed with GFP nanobody-conjugated Sepharose 4 Fast Flow resin (GE Healthcare) for 1.5 h, after which the slurry was packed into a column and washed with a solution of 0.06% digitonin, 150 mM NaCl, 50 mM HEPES pH 8.0, 2 mM MgCl2, 2 mM DTT, and 5% glycerol. PreScission protease was added to the column at a concentration of 0.35 mg/mL for 3 h to liberate MRP1 or Pgp from the GFP-nanobody resin. Eluate was passed through a glutathione sepharose resin to remove PreScission protease and concentrated with a 100 kDa molecular weight cutoff centrifugal filter. Concentrate was loaded onto a GE Healthcare Superose 6 size exclusion column equilibrated in 0.06% digitonin, 150 mM KCl, 50 mM Tris pH 8.0, 2 mM MgCl2, and 2 mM DTT. Peak fractions were collected, pooled, and concentrated for ATPase assays or freezing cryo-EM grids.
ATPase activity was measured by recording the rate of NADH consumption during ATP regeneration from ADP. […] ATPase activity was quantified by calculating the mean and SEM of at least three separate measurements from a single protein purification for each of bMRP1, hMRP1, and hPgp. Data were fit by nonlinear regression to the Michaelis–Menten equation using GraphPad Prism (Dotmatics).
0 = [R]tot × [L]tot - ([L]tot + [R]tot + Ki)[R·L] + [R·L]^2,
Range normalization factor = (Vmax - Vmin)

Pgp = experiment: ATPase activity of detergent-solubilized Pgp, inhibition by CPI1; format: biochemical, human; conditions: Pgp 0.5 µM, 4 mM ATP, CPI1 25-fold molar excess; mean ± SE of three separate measurements
Method: (§1) Fig. 1. Identification of an MRP1-specific inhibitor. (A) Selection strategy for novel cyclic peptide MRP1 ligands. eGFP: enhanced green fluorescent protein; Nb: anti-eGFP nanobody. (B) CPI1 composition. The first residue in the sequence (Ac^DY1, yellow) is covalently bonded to the 17th residue (C17, green) via a thioether linkage. […] All values reported as the mean ± standard error (SE) of three separate measurements. The statistical significance was calculated using unpaired, parametric, two-sided t tests. Labels: not significant (n.s.), P < 0.05 (*), P < 0.01 (**), P < 0.001 (***) P < 0.0001 (****). […] (D) Dose–response curves of the basal and LTC4-stimulated ATPase activity of bMRP1. Rates of ATP hydrolysis were normalized to maximal activity. Data were fit to a modified version of the quadratic binding equation to account for free ligand depletion (Materials and Methods).
(§2) Bovine and human MRP1, as well as human Pgp, were expressed and purified as described previously. […]
(§3) ATPase activity was measured by recording the rate of NADH consumption during ATP regeneration from ADP. […] NADH consumption was measured by monitoring the rate of NADH fluorescence depletion (λex/λem 340/445 nm) using an Infinite M1000 microplate reader (Tecan) at 28 °C. […]

hMRP1 = experiment: ATPase activity of detergent-solubilized hMRP1, inhibition by CPI1; format: biochemical, human; conditions: Fig. 1C: 1 µM hMRP1, 4 mM ATP, CPI1 25-fold molar excess
Method: as §1, §2, §3

P-glycoprotein (Pgp) = conditions: ref [26]–[28]; cited from earlier work
Text: Abrogation of cancer drug resistance by pharmacological inhibition of MRP1 has long been pursued ([10]). […] However, the majority of available MRP1 inhibitors are repurposed from other drug discovery efforts and thus have inherent off-target issues ([24], [25]).

Ki (bMRP1) [nM] | affinity of CPI1 for MRP1 (bMRP1; approximate, Fig. 1D, compared with LTC4) | mode of inhibition (in words) (bMRP1; with respect to LTC4, inferred from shared binding site in structure and affinity) | Compound | inhibition of ATPase activity (in words) (bMRP1; bMRP1, Fig. 1C: 1 µM bMRP1, 4 mM ATP, CPI1 25-fold molar excess) | inhibition of Pgp (in words) (Pgp) | inhibition of ATPase activity (in words) (hMRP1) | inhibition of P-glycoprotein (in words) (P-glycoprotein (Pgp))
70 ± 29 | ~ 100 nM | potent competitive inhibitor of LTC4 | CC(C)C[C@@H]1NC(=O)[C@H](CC(N)=O)NC(=O)CNC(=O)[C@H](Cc2c[nH]c3ccccc23)NC(=O)[C@H](Cc2ccccc2)NC(=O)[C@@H](Cc2ccc(O)cc2)NC(=O)CSC[C@@H](C(=O)O)NC(=O)[C@H]([C@@H](C)O)NC(=O)[C@H](CO)NC(=O)[C@H](CC(=O)O)NC(=O)[C@H](Cc2ccccc2)NC(=O)[C@H](CCC(N)=O)NC(=O)[C@H](CCC(=O)O)NC(=O)[C@H](Cc2ccc(O)cc2)NC(=O)[C@H](Cc2ccc(O)cc2)NC(=O)[C@H](Cc2c[nH]c3ccccc23)NC(=O)[C@H](Cc2c[nH]cn2)NC1=O [CPI1] ({CH2CO}-[dY]FWGNLHWYYEQFDSTC-OH; thioether N-17; C-terminus assumed) | inhibited the ATPase activity of both human and bovine MRP1 | only modest inhibition of Pgp when applied at a 25-fold molar excess; also recorded: minimal inhibition of a related multidrug transporter P-glycoprotein | robust inhibition of hMRP1 ATPase activity | –
– | – | – | O=C(NCCCN1CCOCC1)c1cnn2c(-c3ccccc3)cc(-c3ccccc3)nc12 [Reversan] | – | – | – | also inhibit P-glycoprotein
